PubChem BioAssay (NCI)
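Following 48 hours of exposure in 96-well plates, responses at five concentrations were used to interpolate endpoints linearly. TGI: total growth inhibition.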

Tests used:
Assay in all cases: NCI tumour cell line growth inhibition, 48 h
[1] = tested on: 786-0 renal
[2] = tested on: A498 renal
[3] = tested on: A549 NSCLC
[4] = tested on: ACHN renal
[5] = tested on: BT-549 breast
[6] = tested on: CAKI-1 renal
[7] = tested on: CCRF-CEM leukemia
[8] = tested on: COLO 205 colon
[9] = tested on: DLD-1 colon
[10] = tested on: DMS 273 small cell lung
[11] = tested on: DU-145 prostate
[12] = tested on: EKVX NSCLC
[13] = tested on: HCC-2998 colon
[14] = tested on: HCT-116 colon
[15] = tested on: HCT-15 colon
[16] = tested on: HOP-18 NSCLC
[17] = tested on: HOP-62 NSCLC
[18] = tested on: HOP-92 NSCLC
[19] = tested on: HS 578T breast
[20] = tested on: HT29 colon
[21] = tested on: IGROV1 ovarian
[22] = tested on: K-562 leukemia
[23] = tested on: KM12 colon
[24] = tested on: KM20L2 colon
[25] = tested on: LOX IMVI melanoma
[26] = tested on: LXFL 529 NSCLC
[27] = tested on: M14 melanoma
[28] = tested on: M19-MEL melanoma
[29] = tested on: MALME-3M melanoma
[30] = tested on: MDA-MB-231 breast
[31] = tested on: MDA-MB-435
[32] = tested on: MDA-N
[33] = tested on: NCI-H226 lung
[34] = tested on: NCI-H23 lung
[35] = tested on: NCI-H460 lung
[36] = tested on: NCI-H522 lung
[37] = tested on: NCI/ADR-RES ovarian
[38] = tested on: OVCAR-3 ovarian
[39] = tested on: OVCAR-4 ovarian
[40] = tested on: OVCAR-5 ovarian
[41] = tested on: OVCAR-8 ovarian
[42] = tested on: PC-3 prostate
[43] = tested on: RPMI-8226 leukemia
[44] = tested on: RXF 393 renal
[45] = tested on: SF-268 CNS
[46] = tested on: SF-295 CNS
[47] = tested on: SF-539 CNS
[48] = tested on: SK-MEL-2 melanoma
[49] = tested on: SK-MEL-28 melanoma
[50] = tested on: SK-MEL-5 melanoma
[51] = tested on: SK-OV-3 ovarian
[52] = tested on: SN12C renal
[53] = tested on: SNB-19 CNS
[54] = tested on: SNB-75 CNS
[55] = tested on: SNB-78 CNS
[56] = tested on: SW-620 colon
[57] = tested on: T-47D breast
[58] = tested on: TK-10 renal
[59] = tested on: U251 CNS
[60] = tested on: UACC-257 melanoma
[61] = tested on: UACC-62 melanoma
[62] = tested on: UO-31 renal
[63] = tested on: XF 498 CNS
[64] = tested on: DMS 114 small cell lung
[65] = tested on: HL-60(TB) leukemia
[66] = tested on: MOLT-4 leukemia
[67] = tested on: SR leukemia

Work on `O=C1C=CC(=O)c2c1cc1ccccc1c2O` yielded a TGI [1] of 18.7 µM, a TGI [2] of 28.8 µM and a TGI [3] of 35.3 µM. The TGI [4] was 8.26 µM, the TGI [5] was 21.6 µM and the TGI [6] was 12.7 µM. It also gave a TGI [7] of 5.91 µM, a TGI [8] of 6.15 µM and a TGI [9] of 3.24 µM. It also gave a TGI [10] of 29.5 µM, a TGI [11] of 28.3 µM and a TGI [12] of 22.8 µM. For the same compound, the TGI [13] was 32.8 µM, the TGI [14] was 4.05 µM and the TGI [15] was 13.3 µM. It also gave a TGI [16] of 32.3 µM, a TGI [17] of 26.6 µM and a TGI [18] of 3.61 µM. It also gave a TGI [19] of 38.9 µM, a TGI [20] of 24 µM and a TGI [21] of 15.6 µM. For the same compound, the TGI [22] was 4.85 µM, the TGI [23] was 26.4 µM and the TGI [24] was 40.2 µM. The TGI [25] was 9.06 µM, the TGI [26] was 3.99 µM and the TGI [27] was 26.5 µM. For the same compound, the TGI [28] was 11.3 µM, the TGI [29] was 17.2 µM and the TGI [30] was 4.25 µM. For the same compound, the TGI [31] was 19.2 µM, the TGI [32] was 18.5 µM and the TGI [33] was 37.6 µM. It also gave a TGI [34] of 27.6 µM, a TGI [35] of 41.3 µM and a TGI [36] of 3.98 µM. It also gave a TGI [37] of 25.8 µM, a TGI [38] of 4.8 µM and a TGI [39] of 5.67 µM. It also gave a TGI [40] of 32.5 µM, a TGI [41] of 8.96 µM and a TGI [42] of 19.1 µM. The TGI [43] was greater than 26 µM, the TGI [44] was 4.98 µM and the TGI [45] was 29.2 µM. For the same compound, the TGI [46] was 31.6 µM, the TGI [47] was 25 µM and the TGI [48] was 30.9 µM. For the same compound, the TGI [49] was 20 µM, the TGI [50] was 24.5 µM and the TGI [51] was 34.3 µM. It also gave a TGI [52] of 25.2 µM, a TGI [53] of 35.9 µM and a TGI [54] of 33.2 µM. The TGI [55] was 10.5 µM, the TGI [56] was 3.59 µM and the TGI [57] was 3.49 µM. The TGI [58] was 11 µM, the TGI [59] was 27.1 µM and the TGI [60] was 7.91 µM. For the same compound, the TGI [61] was 20 µM, the TGI [62] was 9.11 µM and the TGI [63] was 8.39 µM.

With `CC1(Br)S(=O)(=O)OCCOS1(=O)=O` the TGI [1] was greater than 100 µM, the TGI [2] was greater than 100 µM and the TGI [3] was greater than 100 µM. It also gave a TGI [4] greater than 100 µM, a TGI [7] greater than 100 µM and a TGI [8] greater than 100 µM. For the same compound, the TGI [9] was greater than 100 µM, the TGI [64] was greater than 100 µM and the TGI [10] was greater than 100 µM. For the same compound, the TGI [12] was greater than 100 µM, the TGI [13] was greater than 100 µM and the TGI [14] was greater than 100 µM. It also gave a TGI [15] greater than 100 µM, a TGI [65] greater than 100 µM and a TGI [17] greater than 100 µM. The TGI [18] was greater than 100 µM, the TGI [20] was greater than 100 µM and the TGI [21] was greater than 100 µM. The TGI [22] was greater than 100 µM, the TGI [24] was greater than 100 µM and the TGI [25] was greater than 100 µM. The TGI [26] was greater than 100 µM, the TGI [27] was greater than 100 µM and the TGI [28] was greater than 100 µM. It also gave a TGI [29] greater than 100 µM, a TGI [66] greater than 100 µM and a TGI [33] greater than 100 µM. The TGI [34] was greater than 100 µM, the TGI [35] was greater than 100 µM and the TGI [36] was greater than 100 µM. The TGI [38] was greater than 100 µM, the TGI [39] was greater than 100 µM and the TGI [40] was greater than 100 µM. For the same compound, the TGI [41] was greater than 100 µM, the TGI [43] was greater than 100 µM and the TGI [44] was greater than 100 µM. The TGI [45] was greater than 100 µM, the TGI [46] was greater than 100 µM and the TGI [47] was greater than 100 µM. For the same compound, the TGI [48] was greater than 100 µM, the TGI [49] was greater than 100 µM and the TGI [50] was greater than 100 µM. For the same compound, the TGI [51] was greater than 100 µM, the TGI [52] was greater than 100 µM and the TGI [53] was greater than 100 µM. It also gave a TGI [54] greater than 100 µM, a TGI [55] greater than 100 µM and a TGI [67] greater than 100 µM. The TGI [56] was greater than 100 µM, the TGI [58] was greater than 100 µM and the TGI [59] was greater than 100 µM. It also gave a TGI [60] greater than 100 µM, a TGI [61] greater than 100 µM and a TGI [62] greater than 100 µM. The TGI [63] was greater than 100 µM.

`COc1ccc2c(c1)CC[C@@H]1C2CC[C@]2(C)C(=O)N(CCN3CCCCC3)C(=O)CC12` (stereo partly specified) gave a TGI [1] greater than 100 µM, a TGI [2] greater than 100 µM and a TGI [4] greater than 100 µM. The TGI [7] was greater than 100 µM, the TGI [8] was greater than 100 µM and the TGI [14] was greater than 100 µM. For the same compound, the TGI [65] was 61.1 µM, the TGI [17] was greater than 100 µM and the TGI [18] was greater than 100 µM. It also gave a TGI [20] greater than 100 µM, a TGI [21] greater than 100 µM and a TGI [22] greater than 100 µM. It also gave a TGI [23] greater than 100 µM, a TGI [24] greater than 100 µM and a TGI [26] greater than 100 µM. It also gave a TGI [27] of 48.9 µM, a TGI [28] greater than 100 µM and a TGI [29] greater than 100 µM. The TGI [34] was greater than 100 µM, the TGI [35] was greater than 100 µM and the TGI [36] was greater than 100 µM. It also gave a TGI [39] greater than 100 µM, a TGI [40] greater than 100 µM and a TGI [43] greater than 100 µM. The TGI [44] was 99.2 µM, the TGI [45] was greater than 100 µM and the TGI [46] was greater than 100 µM. It also gave a TGI [47] greater than 100 µM, a TGI [48] greater than 100 µM and a TGI [49] greater than 100 µM. It also gave a TGI [51] greater than 100 µM, a TGI [53] greater than 100 µM and a TGI [54] greater than 100 µM. It also gave a TGI [55] greater than 100 µM, a TGI [67] greater than 100 µM and a TGI [59] greater than 100 µM. It also gave a TGI [60] of 63.4 µM, a TGI [61] of 41.7 µM and a TGI [62] greater than 100 µM.

In the case of `Cc1ccc(SC2C(C)(C)N(C(C)C)P2(=O)N(C(C)C)C(C)C)cc1` (stereo unspecified), the TGI [1] is reported as greater than 100 µM, the TGI [2] is reported as greater than 100 µM and the TGI [3] is reported as greater than 70.8 µM. It also gave a TGI [4] greater than 100 µM, a TGI [6] greater than 100 µM and a TGI [7] greater than 55.7 µM. It also gave a TGI [8] greater than 64.1 µM, a TGI [10] of 27.7 µM and a TGI [12] of 97.3 µM. For the same compound, the TGI [13] was greater than 100 µM, the TGI [14] was greater than 63.4 µM and the TGI [15] was greater than 100 µM. It also gave a TGI [65] of 41.9 µM, a TGI [16] greater than 100 µM and a TGI [17] greater than 100 µM. It also gave a TGI [18] of 58.3 µM, a TGI [20] greater than 100 µM and a TGI [21] greater than 100 µM. It also gave a TGI [22] greater than 52.4 µM, a TGI [23] greater than 100 µM and a TGI [24] greater than 100 µM. It also gave a TGI [25] greater than 59.9 µM, a TGI [26] greater than 100 µM and a TGI [27] greater than 100 µM. It also gave a TGI [28] greater than 86.6 µM, a TGI [29] greater than 100 µM and a TGI [66] greater than 59.3 µM. The TGI [33] was greater than 100 µM, the TGI [34] was greater than 100 µM and the TGI [35] was greater than 67.6 µM. The TGI [36] was greater than 74.2 µM, the TGI [38] was greater than 100 µM and the TGI [39] was greater than 100 µM. It also gave a TGI [40] greater than 100 µM, a TGI [41] greater than 100 µM and a TGI [43] of 36.8 µM. For the same compound, the TGI [45] was greater than 100 µM, the TGI [46] was greater than 100 µM and the TGI [47] was greater than 100 µM. For the same compound, the TGI [48] was greater than 100 µM, the TGI [49] was greater than 100 µM and the TGI [50] was greater than 100 µM. For the same compound, the TGI [51] was greater than 100 µM, the TGI [52] was greater than 100 µM and the TGI [53] was greater than 100 µM. It also gave a TGI [54] greater than 100 µM, a TGI [55] greater than 100 µM and a TGI [67] of 31.4 µM. The TGI [56] was greater than 50 µM, the TGI [58] was greater than 100 µM and the TGI [59] was greater than 100 µM. It also gave a TGI [60] of 67.5 µM, a TGI [61] greater than 100 µM and a TGI [62] greater than 100 µM.
